17 compounds from patent US5484934A, “Isothiazole derivatives, a process for production thereof and uses thereof” (Nihon Nohyaku Co., Ltd., priority 1992, dated 1996) can be followed below.

Experiment [1] concerns Fusarium oxysporum. Put plainly: Inhibition of hypha growth on malt extract agar, Fusarium oxysporum. The conditions noted are these: read-out: Controlling effect (growth inhibition rate) FUO.
Description: (§1) Each preparation to be tested was added to malt extract agar medium to adjust the concentration to 50 ppm, and the resulting mixture was dispensed into Petri dishes. As an inoculum, a prepared mycerial tuft of each test fungus was punched out together with agar by means of a 4-mm-diameter cork borer and inoculated on medium. The incubation temperature was adjusted to 28±2° .C (or 18±2° C. in the case of Selupula lacrymas).
(§2) The diameter of mycerial tuft was measured 2 to 10 days after the inoculation, and the inhibition rate of hypha growth (the following equation) was measured.
(§3) The controlling effect was evaluated according to the following criterion.
Experiment [2] concerns Trichoderma viride. Description: Inhibition of hypha growth on malt extract agar, Trichoderma viride. To be noted: read-out: Controlling effect (growth inhibition rate) TRV.
Description: as §1, §2
The subject of experiment [3] is Aspergillus niger. Put plainly: Inhibition of hypha growth on malt extract agar, Aspergillus niger. To be noted: read-out: Controlling effect (growth inhibition rate) ASN.
Description: as §1, §2, §3
Experiment [4] concerns Serpula lacrymans. Put plainly: Inhibition of hypha growth on malt extract agar, Serpula lacrymans. The conditions noted are these: read-out: Controlling effect (growth inhibition rate) SEL.
Description: as §1, §2
In experiment [5] the test system is Cladosporium cladosporioides. Put plainly: Inhibition of hypha growth on malt extract agar, Cladosporium cladosporioides. The conditions noted are these: read-out: Controlling effect (growth inhibition rate) CLC.
Description: as §1, §2
Experiment [6] relates to Chaetomium globosum. Description: Inhibition of hypha growth on malt extract agar, Chaetomium globosum. The conditions noted are these: read-out: Controlling effect (growth inhibition rate) CHG.
The test system of experiment [7] is Tyromyces palustris. Put plainly: Inhibition of hypha growth on malt extract agar, Tyromyces palustris. The conditions noted are these: read-out: Controlling effect (growth inhibition rate) TYP.
Description: as §1, §2
Experiment [8] concerns Coriolus versicolor. Description: Inhibition of hypha growth on malt extract agar, Coriolus versicolor. It is filed as cell-based. The conditions noted are these: Trametes versicolor, 28±2° C., 2 to 10 days, read-out: Controlling effect (growth inhibition rate) COV.
For experiment [9], the system named is Rhizopus nigricans. Put plainly: Inhibition of hypha growth on malt extract agar, Rhizopus nigricans. To be noted: Rhizopus stolonifer, read-out: Controlling effect (growth inhibition rate) RHS.
Description: as §1, §2
Experiment [10] has as its system Alternaria mali. Put plainly: Inhibition of hypha growth on malt extract agar, Alternaria mali. To be noted: read-out: Controlling effect (growth inhibition rate) ALM.
Description: as §1, §2, §3

Each structure is given as a SMILES string.

A word on the inhibition: it is how much of the control response was suppressed. With `N#Cc1c(O)nsc1S(=O)(=O)c1ccc(F)cc1` [Compound 11], the inhibition at 50 ppm was in the range of 85 to 99% in [1]; 85 to 99% in experiment [2]; 55 to 84% in [3]; 55 to 84% in experiment [4]; 55 to 84% in experiment [5]; 85 to 99% in experiment [6]. The inhibition at 50 ppm in [7] lay in the range of 85 to 99%; in experiment [8], 85 to 99%; in [9], 85 to 99%; in experiment [10] it was 55 to 84%.
As to `COC(=O)CS(=O)(=O)c1snc(OC)c1C#N` [Compound 81], the inhibition at 50 ppm in experiment [1], in [2], in [3], in experiment [4], in experiment [5] and in [6] was 100% throughout. In addition, the inhibition at 50 ppm in experiment [7], in experiment [8], in experiment [9] and in experiment [10] was 100% throughout.
On to `CCC(C)S(=O)(=O)c1snc(OC(F)F)c1C#N` (centres unmarked) [Compound 28, 3-difluoromethoxy-4-cyano-5-s-butylsulfonylisothiazole], for which the inhibition at 50 ppm is 100% in experiment [1]; 100% in [2]; 85 to 99% in experiment [3]; 100% in [4]; 85 to 99% in [5]; 85 to 99% in experiment [6]. In addition, the inhibition at 50 ppm in [7], in [8], in [9] and in experiment [10] was 100% in each case.
With `N#Cc1c(OC(F)F)nsc1S(=O)(=O)c1ccc(Cl)cc1` [Compound 111], the inhibition at 50 ppm is 85 to 99% in experiment [1]; 100% in experiment [2]; 100% in [3]; 85 to 99% in [4]; 100% in [5]; 100% in [6]. Besides, the inhibition at 50 ppm is 100% in experiment [7], 85 to 99% in experiment [8], 100% in experiment [9] and 100% in experiment [10].
Turning to `CCOC(=O)C[S+]([O-])c1snc(OC)c1C#N` (centres unmarked) [Compound 18], the inhibition at 50 ppm in [1] was 85 to 99%; in experiment [2], 100%; in experiment [3], 100%; in [4], 100%; in experiment [5], 100%; in experiment [6], 100%. In addition, the inhibition at 50 ppm was 100% in [7], 100% in experiment [8], 100% in experiment [9] and 85 to 99% in experiment [10].
On to `COC(=O)COc1nsc(S(=O)(=O)c2ccccc2)c1C#N` [Compound 109], for which the inhibition at 50 ppm in [1], in experiment [2], in experiment [3], in experiment [4], in experiment [5] and in experiment [6] was 100% throughout. The inhibition at 50 ppm in [7], in experiment [8], in experiment [9] and in experiment [10] was 100% in each case.
Turning to `N#Cc1c(OC(F)F)nsc1S(=O)(=O)C1CCCC1` [Compound 30, 3-difluoromethoxy-4-cyano-5-cyclopentylsulfonylisothiazole], the inhibition at 50 ppm was 85 to 99% in experiment [1]; 100% in experiment [2]; 85 to 99% in experiment [3]; 85 to 99% in experiment [4]; 85 to 99% in [5]; 100% in experiment [6]. Besides, the inhibition at 50 ppm in experiment [7] is 100%; in experiment [8] it was 100%; in experiment [9], 100%; in experiment [10], 85 to 99%.
With `Cc1ccc(S(=O)(=O)c2snc(O)c2C#N)cc1` [Compound 2], the inhibition at 50 ppm in experiment [1] lay within 55 to 84%; in [2] it was 85 to 99%; in experiment [3], 55 to 84%; in experiment [4], 55 to 84%; in experiment [5], 55 to 84%; in experiment [6], 85 to 99%. Besides, the inhibition at 50 ppm in [7] fell in the range of 55 to 84%; in experiment [8] it was 85 to 99%; in experiment [9], 85 to 99%; in [10], 55 to 84%.
Take `COc1nsc(S(=O)(=O)c2ccc(F)cc2)c1C#N` [Compound 96]: the inhibition at 50 ppm in [1], in [2], in [3], in [4], in [5] and in experiment [6] was 100% each time. The inhibition at 50 ppm in experiment [7], in experiment [8], in experiment [9] and in experiment [10] was 100% throughout.
In the case of `CC(C)S(=O)(=O)c1snc(OC[Si](C)(C)C)c1C#N` [Compound 77, 3-trimethylsilylmethoxy-4-cyano-5-isopropylsulfonylisothiazole], the inhibition at 50 ppm is 85 to 99% in experiment [1]; 100% in [2]; 85 to 99% in experiment [3]; 100% in [4]; 85 to 99% in experiment [5]; 100% in experiment [6]. The inhibition at 50 ppm is 85 to 99% in [7], 100% in experiment [8], 100% in experiment [9] and 85 to 99% in experiment [10].
As for `CCOc1nsc(S(=O)(=O)c2ccc(Cl)cc2)c1C#N` [Compound 100], the inhibition at 50 ppm in experiment [1], in experiment [2], in experiment [3], in experiment [4], in [5] and in experiment [6] was 100% each time. The inhibition at 50 ppm in [7], in [8], in experiment [9] and in [10] was 100% each time.
Consider `Cc1ccc(Cl)cc1S(=O)(=O)c1snc(OC(F)F)c1C#N` [Compound 113], for which the inhibition at 50 ppm in experiment [1], in experiment [2], in experiment [3], in [4], in experiment [5] and in experiment [6] was 100% each time. Also, the inhibition at 50 ppm in experiment [7], in [8], in [9] and in experiment [10] was 100% in each case.
Regarding `CC(C)(C)c1ccc(S(=O)(=O)c2snc(OC(F)F)c2C#N)cc1` [Compound 117], the inhibition at 50 ppm in experiment [1] was 85 to 99%; in [2], 100%; in [3], 100%; in experiment [4] it was 100%; in [5], 85 to 99%; in [6] it was 100%. The inhibition at 50 ppm is 85 to 99% in experiment [7], 100% in [8], 100% in [9] and 85 to 99% in [10].
Turning to `COc1nsc(S(=O)(=O)c2c(C)cc(C)cc2C)c1C#N` [Compound 97], the inhibition at 50 ppm was 100% in experiment [1]; 100% in experiment [2]; 85 to 99% in experiment [3]; 100% in experiment [4]; 85 to 99% in experiment [5]; 100% in experiment [6]. In addition, the inhibition at 50 ppm in [7], in [8], in experiment [9] and in experiment [10] was 100% throughout.
With `COc1ccc(S(=O)(=O)c2snc(OC)c2C#N)cc1` [Compound 94], the inhibition at 50 ppm in experiment [1], in experiment [2], in [3], in experiment [4], in experiment [5] and in experiment [6] was 100% throughout. For the same compound, the inhibition at 50 ppm in [7], in experiment [8], in experiment [9] and in experiment [10] was 100% in each case.
With `CC=CCOc1nsc(S(C)(=O)=O)c1C#N` [Compound 57], the inhibition at 50 ppm is 100% in experiment [1]; 85 to 99% in [2]; 85 to 99% in experiment [3]; 100% in experiment [4]; 100% in experiment [5]; 85 to 99% in [6]. For the same compound, the inhibition at 50 ppm was 100% in [7], 100% in experiment [8], 85 to 99% in experiment [9] and 85 to 99% in experiment [10].
On to `CCS(=O)(=O)c1snc(OCC=CCl)c1C#N` [Compound 59], for which the inhibition at 50 ppm in experiment [1], in experiment [2], in experiment [3], in experiment [4], in experiment [5] and in experiment [6] was 100% each time. The inhibition at 50 ppm in [7], in [8], in experiment [9] and in experiment [10] was 100% each time.
